Read-outs that look alike come from different tables or passages of the source.
Experiments:
[1] = target: T1, Voltage gated sodium channel (Nav1.5 channel) encoded by SCN5A gene (Homo sapiens, UniProt Q14524); experiment: Nav test (QPatch whole cell patch clamp); type: cell-based; settings: HEK cells expressing Nav1.5, applied 5 minutes or more, room temperature
T1 construct: expressed in transfected cells; host or cells: HEK cells
Protocol: A cell was retained at a membrane potential of −100 mV by whole cell patch clamp method using a fully automated patch clamp system (QPatch; Sophion Bioscience A/S), and INa induced by depolarization pulse stimulation at −10 mV for 20 ms was recorded. […] The extracellular solution in which the medium and the compound of the present invention had been dissolved at each objective concentration was applied to the cell for 5 minutes or more under conditions of room temperature.

[2] = system: HIV mutant strain 2 (E92Q/E138T/G140S/Q148H); type: cell-based; settings: FC=EC50 of the mutant strain/EC50 of the wild strain, HeLa-CD4 cells
Protocol: (§1) Serial dilutions of a test sample were prepared in a 96-well microplate (50 μL/well). 2.5×10^5 cells/mL of a HeLa-CD4 cell suspension was dispensed at 100 μL/well to the plate containing the test sample. Then, an HIV virus solution (wild strain and mutant strain) was dispensed at 50 μL/well. The plate was mixed with a plate mixer and cultured for 3 days in a CO2 incubator. The culture supernatant in each well was removed by suction. A cell lysis buffer in a reporter assay kit was dispensed at 100 μL/well, and the plate was frozen in a freezer (−80° C.). The plate frozen in a freezer was thawed at room temperature, then mixed with a plate mixer, and centrifuged at 1,200 rpm for 5 minutes. The supernatant of each well was dispensed at 20 μL/well to a 96-well microplate (BLACK). A chemiluminescent in the reporter assay kit reagent was dispensed at 100 μL/well and reacted at room temperature for approximately 1 hour. Then, luminescence intensity was measured using MicroBeta TRILUX.

[3] = system: HIV mutant strain 1 (E138K/G140S/Q148H/N155H); type: cell-based; settings: FC=EC50 of the mutant strain/EC50 of the wild strain, HeLa-CD4 cells
Protocol: as §1

[4] = type: in vitro ADME; settings: human, 30 min, 0.5 μmol/L, pH 7.4
Protocol: Using commercially available pooled human liver microsomes, a compound of the present invention was reacted for a constant time, and a remaining rate was calculated by comparing a reacted sample and an unreacted sample, thereby, a degree at which the compound of the present invention was metabolized in liver was assessed.
A reaction was performed (oxidative reaction) at 37° C. for 0 minute or 30 minutes in the presence of 1 mmol/L NADPH in 0.2 mL of a buffer solution (50 mmol/L Tris-HCl pH 7.4, 150 mmol/L potassium chloride, 10 mmol/L magnesium chloride) containing 0.5 mg protein/mL of human liver microsomes. After the reaction, 50 μL of the reaction solution was added to 100 μL of a solution of methanol/acetonitrile=1/1 (v/v), and the mixture was mixed and centrifuged at 3000 rpm for 15 minutes. The compound of the present invention in the centrifugation supernatant was quantified by LC/MS/MS or solid-phase extraction (SPE)/MS. The amount of the compound of the present invention remaining after the reaction was calculated with the amount of the compound at 0 minutes of the reaction defined as 100%.

[5] = system: HIV; experiment: Anti-HIV activity (MT-4 cells, MTT); type: cell-based; settings: Human immunodeficiency virus 1, MT4, 96 h, read-out: EC50_nM (50% HIV inhibitory concentration)
Protocol: Serial dilutions of a test sample were prepared in a 96-well microplate (50 μL/well). 2.5×10^5 cells/mL of an MT-4 cell suspension was dispensed at 100 μL/well to the plate containing the test sample. Then, an HIV virus solution was dispensed at 50 μL/well. The plate was mixed with a plate mixer and cultured for 4 days in a CO2 incubator. An MTT (3-(4,5-dimethylthiazol-2-yl)-2,5-diphenyltetrazolium bromide) solution was dispensed at 30 μL/well. The plate was reacted for 1 hour in a CO2 incubator. 150 μL of the supernatant was removed from each well so as not to take up the cells. 150 μL of a cell lysis solution was added to each well and well mixed with a plate mixer until the cells were completely lysed. The absorbance of the mixed plate was measured at two wavelengths of 560 nm and 690 nm using a microplate reader.

[6] = Clearance evaluation test (rat, intravenous); type: in vivo; settings: plasma, 1 umol/kg, rats, intravenous 1 μmol/kg; for half-life: read-out: elimination half-life (t½) (converted); for clearance: read-out: total body clearance (CLtot)
Description: Experimental Material and Method
(1) Animals used: rats were used.
(2) Rearing conditions: the rats were allowed to freely take solid feed and sterilized tap water.
(3) Dose and grouping setting: a given dose was intravenously administered. Groups were set as follows:
Intravenous administration: 1 μmol/kg (n=2)
(4) Preparation of dosing solution: the test sample was solubilized using a solvent of dimethyl sulfoxide/propylene glycol=1/1 and administered.
(5) Administration method: the test sample was administered to the tail vein through a syringe with an injection needle.
(6) Evaluation item: blood was collected over time, and the concentration of the compound of the present invention in plasma was measured using LC/MS/MS.
(7) Statistical analysis: total body clearance (CLtot) and elimination half-life (t½) were calculated as to change in the concentration of the compound of the present invention in plasma by the moment analysis method.

T1 sequence (Q14524 whole entry): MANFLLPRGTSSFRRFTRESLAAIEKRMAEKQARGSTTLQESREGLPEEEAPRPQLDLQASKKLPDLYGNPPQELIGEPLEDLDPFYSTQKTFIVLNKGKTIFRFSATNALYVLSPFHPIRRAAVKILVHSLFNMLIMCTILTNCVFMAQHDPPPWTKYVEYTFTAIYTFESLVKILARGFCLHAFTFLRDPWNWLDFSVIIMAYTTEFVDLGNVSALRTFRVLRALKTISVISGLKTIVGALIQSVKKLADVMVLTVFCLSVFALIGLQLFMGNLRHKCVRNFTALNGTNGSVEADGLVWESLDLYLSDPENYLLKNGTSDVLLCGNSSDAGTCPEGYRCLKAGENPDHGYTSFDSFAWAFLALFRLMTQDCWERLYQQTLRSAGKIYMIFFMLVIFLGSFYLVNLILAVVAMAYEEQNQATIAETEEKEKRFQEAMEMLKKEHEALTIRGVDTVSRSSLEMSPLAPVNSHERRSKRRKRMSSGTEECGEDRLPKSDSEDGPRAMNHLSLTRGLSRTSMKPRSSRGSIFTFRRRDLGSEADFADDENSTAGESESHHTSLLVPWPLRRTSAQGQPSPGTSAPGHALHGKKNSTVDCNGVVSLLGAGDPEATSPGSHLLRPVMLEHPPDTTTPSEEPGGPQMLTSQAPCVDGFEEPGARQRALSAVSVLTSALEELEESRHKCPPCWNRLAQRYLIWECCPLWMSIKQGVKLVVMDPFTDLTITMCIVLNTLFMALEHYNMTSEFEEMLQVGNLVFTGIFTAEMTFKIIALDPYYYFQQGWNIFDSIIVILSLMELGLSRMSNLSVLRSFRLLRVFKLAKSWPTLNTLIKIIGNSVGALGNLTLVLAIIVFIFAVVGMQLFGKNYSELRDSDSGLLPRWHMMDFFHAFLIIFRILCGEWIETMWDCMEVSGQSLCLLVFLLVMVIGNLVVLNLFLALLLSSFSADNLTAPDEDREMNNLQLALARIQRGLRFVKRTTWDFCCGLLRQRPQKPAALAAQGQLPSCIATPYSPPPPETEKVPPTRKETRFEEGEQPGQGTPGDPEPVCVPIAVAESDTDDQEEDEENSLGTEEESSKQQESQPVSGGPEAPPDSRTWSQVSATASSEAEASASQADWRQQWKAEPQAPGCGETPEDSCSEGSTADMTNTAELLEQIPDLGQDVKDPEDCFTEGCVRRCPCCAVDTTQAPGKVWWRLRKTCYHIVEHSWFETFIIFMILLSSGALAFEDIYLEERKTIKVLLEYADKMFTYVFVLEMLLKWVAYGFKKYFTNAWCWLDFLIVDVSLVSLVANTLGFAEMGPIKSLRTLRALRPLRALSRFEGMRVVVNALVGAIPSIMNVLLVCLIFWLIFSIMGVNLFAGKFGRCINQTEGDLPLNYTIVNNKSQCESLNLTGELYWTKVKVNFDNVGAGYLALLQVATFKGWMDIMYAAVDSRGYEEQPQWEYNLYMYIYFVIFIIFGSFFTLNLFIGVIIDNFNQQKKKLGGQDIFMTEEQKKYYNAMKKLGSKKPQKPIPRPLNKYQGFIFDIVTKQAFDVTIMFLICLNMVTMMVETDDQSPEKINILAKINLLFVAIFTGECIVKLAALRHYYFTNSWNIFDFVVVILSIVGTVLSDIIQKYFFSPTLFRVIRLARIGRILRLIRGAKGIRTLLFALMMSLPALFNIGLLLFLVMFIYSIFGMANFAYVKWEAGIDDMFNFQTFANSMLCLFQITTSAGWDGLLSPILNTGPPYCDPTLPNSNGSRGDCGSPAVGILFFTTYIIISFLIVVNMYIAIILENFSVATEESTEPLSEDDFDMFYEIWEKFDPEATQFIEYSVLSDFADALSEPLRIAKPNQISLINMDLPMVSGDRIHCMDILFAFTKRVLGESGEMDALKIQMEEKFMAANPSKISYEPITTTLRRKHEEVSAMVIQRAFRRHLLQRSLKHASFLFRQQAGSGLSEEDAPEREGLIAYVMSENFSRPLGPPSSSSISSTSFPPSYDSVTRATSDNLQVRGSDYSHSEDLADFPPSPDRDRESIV

Compound	ratio of maximum peak current (INa) with compound relative to medium [1] [%]	FC (fold change) for mutant strain 2 [2]	FC (fold change) for mutant strain 1 [3]	residual rate [4]	EC50 [5] [nM]	half-life [6] [min]	clearance [6] [mL/h/kg]	EC50 ([5]; MT-4 cells, cultured 4 days, MTT) [nM]
CCN1C(=O)c2c(O)c(=O)c(-c3nnc(Cc4ccc(F)cc4F)s3)cn2N2CC[C@@H](C)C[C@@H]12 [II-033]	90.7							
CCN1C(=O)c2c(O)c(=O)c(-c3nnc(Cc4ccc(F)cc4)s3)cn2N2[C@H](COC)CC[C@@H]12 [II-038]	86.2	31	20	92.4	0.13			
CCN1C(=O)c2c(O)c(=O)c(-c3nnc(Cc4c(F)cc(F)cc4F)s3)cn2N2CC[C@H](C)C[C@@H]12 [II-061]		7.3	5.1	91.5	1.8			
CN1C(=O)c2c(O)c(=O)c(-c3nnc(Cc4c(F)cc(F)cc4F)s3)cn2N2C[C@@H]3CC[C@@H](C3)[C@@H]12 [II-063]		12	14	96.5	0.6			
C[C@@H]1CCN2[C@@H](C1)N(C)C(=O)c1c(O)c(=O)c(-c3nnc(Cc4c(F)cc(F)cc4F)s3)cn12 [II-058]		6.1	6.1	94.2	0.69			
CN1C(=O)c2c(O)c(=O)c(-c3nnc(Cc4ccc(F)cc4F)s3)cn2N2C[C@@H]3CC[C@@H](C3)[C@@H]12 [II-055]		11	15	93.9	0.14			
CCN1C(=O)c2c(O)c(=O)c(-c3nnc(Cc4ccc(F)cc4)s3)cn2N2C[C@@H]3CC[C@@H](O3)[C@@H]12 [II-050]		29	20	103	0.66			
C[C@@H]1CCC[C@H]2N(C)C(=O)c3c(O)c(=O)c(-c4nnc(Cc5ccc(F)cc5F)s4)cn3N12 [II-043]		11	6.8	103	3.5			
CCN1C(=O)c2c(O)c(=O)c(-c3cnn(Cc4ncc(Cl)cc4F)c3)cn2N2CCCC[C@@H]12 [II-013]						2120	1.36	32
CCN1C(=O)c2c(O)c(=O)c(-c3nnc(Cc4c(F)cc(F)cc4F)s3)cn2N2C[C@@H]3CC[C@@H](O3)[C@@H]12 [II-046]		20	17	97.2	0.6			
CCN1C(=O)c2c(O)c(=O)c(-c3nnc(Cc4c(F)cc(F)cc4F)s3)cn2N2CCOC[C@@H]12 [II-018]	109	20	15	95.3	0.52			
CN1C(=O)c2c(O)c(=O)c(-c3nnc(Cc4ccc(F)cc4F)s3)cn2N2CCOC[C@@H]12 [II-010]		22	25	106	1.3			
CCN1C(=O)c2c(O)c(=O)c(-c3nnc(Cc4c(F)cc(F)cc4F)s3)cn2N2C[C@@H]3CC[C@@H](C3)[C@@H]12 [II-052]		3.5	2.3	83.4	0.66			
C[C@@H]1CC[C@H]2N(C)C(=O)c3c(O)c(=O)c(-c4nnc(Cc5ccc(F)cc5F)s4)cn3N12 [II-029]		6.5	7.2	85.3	0.66			
C[C@H]1CC[C@H]2N(C)C(=O)c3c(O)c(=O)c(-c4nnc(Cc5ccc(F)cc5F)s4)cn3N2C1 [II-041]	78.8	8	5.8	95.5	0.25			
CCN1C(=O)c2c(O)c(=O)c(-c3nnc(Cc4cc(F)c(F)cc4F)s3)cn2N2CCCC[C@@H]12 [Compound I-012]	97.1	46	23	72.2	4.8			
CCN1C(=O)c2c(O)c(=O)c(-c3nnc(Cc4ccc(F)cc4F)s3)cn2N2[C@H](COC)CC[C@@H]12 [II-024]	89.3	11	8.2	96.5	0.13	1420	2.18	
CN1C(=O)c2c(O)c(=O)c(-c3nnc(Cc4ccc(F)cc4F)s3)cn2N2CCCC[C@@H]12 [II-003]	96.7	12	8.8	109	0.62			
CCN1C(=O)c2c(O)c(=O)c(-c3nnc(Cc4c(F)cc(F)cc4F)s3)cn2N2C[C@@H](C)CC[C@@H]12 [II-068]		4.6	3.5	91.3	1.2			
CCN1C(=O)c2c(O)c(=O)c(-c3nnc(Cc4ccc(F)cc4F)s3)cn2N2C[C@@H](C)CC[C@@H]12 [II-067]		5.1	5.2	93	0.3			
CCN1C(=O)c2c(O)c(=O)c(-c3nnc(Cc4cc(F)c(F)cc4F)s3)cn2N2C[C@@H]3CC[C@@H](C3)[C@@H]12 [II-062]		6.6	8.3	71.7	5.2			
